The IC50 is the concentration at which inhibition is half-maximal.

Our source for the Activity and IC50 values is ChEMBL document CHEMBL3727348, “3-(aryl or heteroaryl) methyleneindolin-2-one derivatives as inhibitors of cancer stem cell pathway kinases for the treatment of cancer” (2014).

For test [1], the target named is T1, Ribosomal protein S6 kinase (Homo sapiens) (UniProt P51812+Q9UBS0+O75676+Q15349+O75582+P23443+Q9UK32+Q15418). Description: Inhibition of RPS6 kinase in human HeLa cells assessed as p-RPS6 Ser240/244 phosphorylation level at 5 uM incubated for 6 hrs by SDS-PAGE based chemiluminescence assay. Format: cell-based. On the set-up: scale not given: the % may be the effect or the level left.

Test [2] relates to ACHN. The test is described as follows: Cytotoxic activity against human ACHN bulk cells incubated for 72 hrs by Cell-titer-Glo luminescence assay. The test is classed as functional, cell-based.
Test [3] addresses AMP-activated protein kinase, AMPK (Homo sapiens) (UniProt P54646+O43741+P54619+Q9UGJ0+Q9Y478+Q13131+Q9UGI9). The test is described as follows: Inhibition of AMPK in human HeLa cells assessed as kinase phosphorylation level at 5 uM incubated for 6 hrs by SDS-PAGE based chemiluminescence assay. On the set-up: scale not given: the % may be the effect or the level left. Format: cell-based.

Test [4] has as its system A549. The test is described as follows: Cytotoxic activity against human A549 bulk cells incubated for 72 hrs by Cell-titer-Glo luminescence assay. The test is classed as functional, cell-based. The conditions noted are these: A549, 72 h.
Test [5] has as its system FaDu. The test is described as follows: Cytotoxic activity against human FADU cancer stem cells incubated for 72 hrs by Cell-titer-Glo luminescence assay. The test is classed as functional, cell-based.
The target of test [6] is T1, Ribosomal protein S6 kinase (Homo sapiens). The test is described as follows: Inhibition of RPS6 kinase in human HeLa cells assessed as p-RPS6 Ser235/236 phosphorylation level at 5 uM incubated for 6 hrs by SDS-PAGE based chemiluminescence assay. Format: cell-based. Details: scale not given: the % may be the effect or the level left.
Test [7] concerns A549. The test is described as follows: Cytotoxic activity against human A549 cancer stem cells incubated for 72 hrs by Cell-titer-Glo luminescence assay. Format: functional, cell-based. The following applies: A549, 72 h.
For test [8], the system named is FaDu. The test is described as follows: Cytotoxic activity against human FADU bulk cells incubated for 72 hrs by Cell-titer-Glo luminescence assay. The test is classed as functional, cell-based.
Test [9] concerns ACHN. Description: Cytotoxic activity against human ACHN cancer stem cells incubated for 72 hrs by Cell-titer-Glo luminescence assay. Format: functional, cell-based.

`CCN(CC)CCNC(=O)c1c(C)[nH]c(/C=C2\C(=O)Nc3ccc(-c4n[nH]c5ccccc45)cc32)c1C`: the results for the Activity in test [1], in test [3] and in test [6] were 26%, 22% and 4%, respectively. In addition, the IC50 in the test with ACHN [2] came out at 4.31 µM; in the test on A549 [4], 3.02 µM; in the test on FaDu [5] it was 10.2 µM; in the test on A549 [7] it was 5.65 µM; in the test on FaDu [8], 2.85 µM; in the test with ACHN [9], 1.31 µM.
With `CCN(CC)CCNC(=O)c1c(C)[nH]c(/C=C2\C(=O)Nc3ccc(-c4ccc(-c5ccccc5)cn4)cc32)c1C`, the Activity in test [1] amounted to 82%; in test [3], 118%; in test [6], 61%. Moreover, the IC50 with ACHN [2] stood at 5.38 µM; in the test on A549 [4], 2.02 µM; with FaDu [5] it was 4.81 µM; in the test with A549 [7] it was 3.79 µM; in the test on FaDu [8], 2.72 µM; in the test on ACHN [9], 0.65 µM.
For the molecule `Cc1[nH]c(/C=C2\C(=O)Nc3c2cccc3-c2csc(-c3ccccc3)n2)c(C)c1C(=O)N1CCN(C)CC1`, the figures for the Activity in test [1], in test [3] and in test [6] were 32%, 122% and 2%, respectively. The IC50 in the test with ACHN [2] came out at 15.2 µM; in the test with A549 [4], 5.41 µM; with FaDu [5] it was 2.99 µM; with A549 [7], 4.19 µM; with FaDu [8] it was 5.41 µM; in the test with ACHN [9], 0.5 µM.
As to `CCN(CC)CCNC(=O)c1c(C)[nH]c(/C=C2\C(=O)Nc3c2cccc3-c2csc(-c3ccccc3)n2)c1C`, the Activity came to 32% in [1], 144% in [3] and 2% in test [6]. Besides, the IC50 in the test on ACHN [2] came to 3.2 µM; in the test on A549 [4], 1.96 µM; in the test with FaDu [5], 1.26 µM; with A549 [7], 1.57 µM; in the test with FaDu [8] it was 3.75 µM; in the test on ACHN [9] it was 0.28 µM.
As for `CCN(CC)CCNC(=O)c1c(C)[nH]c(/C=C2\C(=O)Nc3ccc(-c4cccnc4)cc32)c1C`, the Activity stood at 31% in [1], 8% in test [3] and 1% in [6]. The IC50 in the test with ACHN [2] is 1.31 µM; in the test with A549 [4] it was 0.84 µM; in the test on FaDu [5], 4.31 µM; in the test with A549 [7] it was 3.9 µM; in the test with FaDu [8] it was 2.82 µM; in the test with ACHN [9], 1.06 µM.
Take `CCN(CC)CCNC(=O)c1c(C)[nH]c(/C=C2\C(=O)Nc3c2cccc3-c2ccc3cc[nH]c3c2)c1C`: the figures for the Activity in test [1], in test [3] and in test [6] were 44%, 39% and 29%, respectively. Besides, the IC50 in the test on ACHN [2] was found to be 3 µM; with A549 [4], 2.91 µM; in the test on FaDu [5], 2.06 µM; in the test with A549 [7] it was 3.9 µM; in the test with FaDu [8] it was 2.77 µM; with ACHN [9], 1.86 µM.
With `CCN(CC)CCNC(=O)c1c(C)[nH]c(/C=C2\C(=O)Nc3c2cccc3-c2cncc(C)c2)c1C`, the results for the Activity in [1], in test [3] and in [6] were 59%, 50% and 47%, respectively. The IC50 with ACHN [2] worked out at 1.68 µM; in the test on A549 [4] it was 3.36 µM; in the test with FaDu [5] it was 2.2 µM; in the test on A549 [7] it was 2.23 µM; with FaDu [8], 6.23 µM; with ACHN [9] it was 1.97 µM.
For the molecule `Cc1cc(C)c(/C=C2\C(=O)Nc3ccc(-c4csc(C5CCCNC5)n4)cc32)[nH]1` (centres undefined), the Activity in test [1] is 34%; in test [3] it was 69%; in test [6], 6%. Further, the IC50 is 1.64 µM in the test with ACHN [2]; 1.34 µM in the test on A549 [4]; 0.48 µM in the test with FaDu [5]; 1.7 µM in the test on A549 [7]; 1.58 µM in the test with FaDu [8]; 0.05 µM with ACHN [9].
`CCN(CC)CCNC(=O)c1c(C)[nH]c(/C=C2\C(=O)Nc3ccc(-c4csc(-c5ccc(O)cc5)n4)cc32)c1C`: the values for the Activity in test [1], in [3] and in test [6] were 88%, 47% and 79%, respectively. In addition, the IC50 in the test with ACHN [2] stood at 1.38 µM; in the test with A549 [4], 3.06 µM; in the test on FaDu [5] it was 1.85 µM; in the test with A549 [7], 6.99 µM; in the test with FaDu [8], 0.7 µM; with ACHN [9], 0.5 µM.
Take `Cc1[nH]c(/C=C2\C(=O)Nc3cc(-c4csc(-c5ccccc5)n4)ccc32)c(C)c1C(=O)N1CCN(C)CC1`: the Activity in test [1] is 73%; in [3], 150%; in [6] it was 33%. Further, the half-maximal inhibitory concentration (IC50) with ACHN [2] is 11.6 µM; with A549 [4], 26.3 µM; with FaDu [5] it was 1.03 µM; in the test with A549 [7], 1.22 µM; with FaDu [8] it was 4.74 µM; in the test with ACHN [9], 0.39 µM.
Turning to `CCN(CC)CCNC(=O)c1c(C)[nH]c(/C=C2\C(=O)Nc3c2cccc3-c2cccnc2OC)c1C`, the Activity in test [1] turned out to be 54%; in test [3], 31%; in test [6], 48%. Besides, the IC50 is 3.64 µM in the test with ACHN [2]; 5.32 µM with A549 [4]; 1.92 µM with FaDu [5]; 6.87 µM in the test on A549 [7]; 3.81 µM in the test on FaDu [8]; 2.71 µM with ACHN [9].
Take `CCN(CC)CCNC(=O)c1c(C)[nH]c(/C=C2\C(=O)Nc3ccc(-c4csc(-c5ccccc5)n4)nc32)c1C`: the Activity in [1] came out at 42%; in [3], 35%; in test [6], 5%. The IC50 in the test on ACHN [2] turned out to be 1.37 µM; with A549 [4], 1.74 µM; in the test with FaDu [5], 0.11 µM; in the test on A549 [7], 0.62 µM; in the test with FaDu [8] it was 1.37 µM; with ACHN [9], 0.97 µM.
For `Cc1[nH]c(/C=C2\C(=O)Nc3ccc(-c4csc(-c5ccccc5)n4)nc32)c(C)c1C(=O)NCCN1CCCC1`, the Activity in test [1] came out at 51%; in test [3], 41%; in test [6] it was 13%. The IC50 in the test with ACHN [2] is 1.52 µM; in the test on A549 [4], 1.43 µM; in the test on FaDu [5], 0.17 µM; in the test with A549 [7], 2.47 µM; with FaDu [8] it was 1.73 µM; in the test with ACHN [9] it was 0.4 µM.
Consider `Cc1cc(C)c(/C=C2\C(=O)Nc3ccc(-c4ccc5cn[nH]c(=O)c5c4)cc32)[nH]1`, for which the Activity in [1] amounted to 24%; in test [3], 39%; in test [6], 1%. For the same molecule, the IC50 was found to be 1.12 µM in the test with ACHN [2]; 1.4 µM in the test on A549 [4]; 2.96 µM in the test on FaDu [5]; 3 µM with A549 [7]; 2.55 µM in the test with FaDu [8]; 0.26 µM in the test with ACHN [9].
`CCN(CC)CCNC(=O)c1c(C)[nH]c(/C=C2\C(=O)Nc3ccc(-c4ccc(-c5ccccc5)o4)cc32)c1C`: the Activity in test [1] was found to be 64%; in test [3] it was 144%; in test [6] it was 19%. The IC50 with ACHN [2] worked out at 3.66 µM; with A549 [4], 4.3 µM; in the test with FaDu [5], 1.41 µM; with A549 [7], 8.25 µM; with FaDu [8], 3.09 µM; with ACHN [9], 0.25 µM.
On to `Cc1cc(C)c(/C=C2\C(=O)Nc3cccc(-c4ccncc4)c32)[nH]1`, for which the Activity stood at 47% in test [1], 75% in [3] and 50% in test [6]. For the same molecule, the IC50 with ACHN [2] came to 19.8 µM; in the test with A549 [4], 13.1 µM; in the test on FaDu [5] it was 12.2 µM; with A549 [7], 30.3 µM; in the test with FaDu [8], 19.6 µM; with ACHN [9], 16.2 µM.
